From US10189854B2, “Substituted pyrimidine compounds” (Grünenthal GmbH, priority 2014, dated 2019) come the findings set out here.

human PDE4B1, sequence (Q07343 whole entry): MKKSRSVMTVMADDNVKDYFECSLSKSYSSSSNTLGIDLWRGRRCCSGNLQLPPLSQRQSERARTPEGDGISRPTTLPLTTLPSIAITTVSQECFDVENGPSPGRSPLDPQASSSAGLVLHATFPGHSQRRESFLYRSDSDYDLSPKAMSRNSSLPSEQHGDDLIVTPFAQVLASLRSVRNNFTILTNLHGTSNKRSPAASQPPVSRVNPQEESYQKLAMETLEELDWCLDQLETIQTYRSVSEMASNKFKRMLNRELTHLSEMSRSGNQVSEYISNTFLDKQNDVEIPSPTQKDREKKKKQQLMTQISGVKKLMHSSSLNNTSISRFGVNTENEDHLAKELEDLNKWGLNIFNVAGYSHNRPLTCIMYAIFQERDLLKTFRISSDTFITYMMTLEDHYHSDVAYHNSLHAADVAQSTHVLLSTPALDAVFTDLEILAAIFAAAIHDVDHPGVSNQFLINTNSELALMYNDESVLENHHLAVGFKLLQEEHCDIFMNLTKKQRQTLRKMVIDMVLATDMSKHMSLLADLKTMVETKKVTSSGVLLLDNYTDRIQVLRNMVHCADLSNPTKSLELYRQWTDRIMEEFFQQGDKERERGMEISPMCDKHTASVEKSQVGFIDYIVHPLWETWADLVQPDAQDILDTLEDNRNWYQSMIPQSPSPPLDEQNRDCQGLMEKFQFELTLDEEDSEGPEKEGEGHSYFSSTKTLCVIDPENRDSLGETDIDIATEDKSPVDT

For the assay, the target named is human PDE4B1 (Homo sapiens (Human), UniProt Q07343). As to the kind of experiment: cAMP HTRF assay to determine the activity of hPDE4B1. The conditions noted are these: IC50 inhibition of PDE4B; human recombinant PDE4B1, cAMP HTRF assay. The format is biochemical. On the procedure:
Biological Testing cAMP HTRF® Assay to Determine the Activity of hPDE4B1
The inhibiting effect of the compounds on the enzyme activity of human PDE4B1 was measured by the quantification of 5′-adenosine monophosphate (5′-AMP), which is formed from 3′,5′-cyclic adenosine monophosphate (cAMP). Human recombinant enzyme, expressed in Sf9 cells, and the HTRF (homogeneous time-resolved fluorescence) detection method were used in the assay.
The test compound or water (control) was mixed with the human recombinant PDE4B1 enzyme (4.8 U) in a buffer consisting of 44.4 mM tris-HCl, 5.28 mM MgCl2, 2.64 mM DTT and 0.044% Tween 20 (pH 7.8). After adding the cAMP enzyme substrate (final concentration 40 nM), the mixture was incubated for 30 minutes at room temperature. Then a fluorescence acceptor (Dye2 marked with cAMP), a fluorescence donor (anti-cAMP antibody marked with a europium cryptate) and the non-specific phosphodiesterase inhibitor IBMX (3-isobutyl-1-methylxanthine; final concentration 1 mM) were added. After 60 min the fluorescence transfer, which correlates with the amount of remaining cAMP, was measured with a microplate reader (Rubystar, BMG) at λex=337 nm, λem=620 nm and λem=665 nm. The enzyme activity was calculated from the quotient formed from the measured signal at 665 nm and that at 620 nm. The result was expressed as the percentage inhibition of enzyme activity of the control (without PDE4 inhibitor). The enzyme was omitted for measurement of the basal control.
[N. Saldou et al., Comparison of recombinant human PDE4 isoforms: interaction with substrate and inhibitors, Cell. Signal. Vol. 10, No. 6, 427-440, 1998]. Several compounds according to the invention are tested in the above-described assay.
Background: In TR-FRET formats the signal depends on donor and acceptor labels being close together.
As to “1-[5-(3-Carbamoyl-phenyl)-pyrimidin-2-yl]-N-(2-hydroxy-ethyl)-N-methyl-spiro[1,2-dihydro-indole-3,1′-cyclopropane]-6-carboxylic acid amide [Compound 198]”, the half-inhibitory concentration (IC50) is below 0.1 µM.
For “1-[5-(3-Cyano-phenyl)-pyrimidin-2-yl]-N-(2-hydroxy-ethyl)-N-methyl-spiro[1,2-dihydro-indole-3,1′-cyclo-propane]-6-carboxylic acid amide [Compound 193]”, the IC50 is below 0.1 µM.
As to “1-[5-(3-Cyano-phenyl)-pyrimidin-2-yl]-N-(2-hydroxy-ethyl)-N-methyl-spiro[1,2-dihydro-indole-3,1′-cyclopropane]-6-carboxylic acid amide [Compound 194]”, the concentration for half-maximal inhibition (IC50) is below 0.1 µM.
For “4-[1-(5-Phenyl-pyrimidin-2-yl)-spiro[1,2-dihydro-indole-3,1′-cyclopropane]-6-carbonyl]-piperazine-2,6-dione [Compound 202]”, the IC50 lay within 0.1 to 1 µM.
The value for “4-[1-[5-(3-Fluorophenyl)-pyrimidin-2-yl]-spiro[1,2-dihydro-indole-3,1′-cyclopropane]-6-carbonyl]-piperazin-2-one [Compound 188]” was below 0.1 µM; that for “4-[1-[5-(3-Methoxyphenyl)-pyrimidin-2-yl]-spiro[1,2-dihydro-indole-3,1′-cyclopropane]-6-carbonyl]-piperazin-2-one [Compound 189]” was below 0.1 µM; that for `O=C(c1ccc2c(c1)N(c1ncc(-c3ccccc3F)cn1)CC21CC1)N1CCOCC1` [Compound 1, [1-[5-(2-Fluorophenyl)-pyrimidin-2-yl]-spiro[1,2-dihydro-indole-3,1′-cyclopropane]-6-yl]-morpholin-4-yl-methanone] was below 0.1 µM.
With `CN(C)C(=O)c1ccc2c(c1)N(c1ncc(-c3ccccc3F)cn1)CC21CC1` [Compound 2, 1-[5-(2-Fluorophenyl)-pyrimidin-2-yl]-N,N-dimethyl-spiro[1,2-dihydro-indole-3,1′-cyclopropane]-6-carboxylic acid amide], the IC50 was below 0.1 µM.
Take `O=C1CN(C(=O)c2ccc3c(c2)N(c2ncc(-c4ccccc4F)cn2)CC32CC2)CCN1` [Compound 4, 4-[1-[5-(2-Fluorophenyl)-pyrimidin-2-yl]-spiro[1,2-dihydro-indole-3,1′-cyclopropane]-6-carbonyl]-piperazin-2-one]: the concentration for half-maximal inhibition (IC50) is below 0.1 µM.
With `O=C(c1ccc2c(c1)N(c1ncc(-c3ccccc3F)cn1)CC21CC1)N1CCNCC1` [Compound 5, [1-[5-(2-Fluorophenyl)-pyrimidin-2-yl]-spiro[1,2-dihydro-indole-3,1′-cyclopropane]-6-yl]-piperazin-1-yl-methanone], the IC50 was below 0.1 µM.
Take `O=C(c1ccc2c(c1)N(c1ncc(-c3ccccc3Cl)cn1)CC21CC1)N1CCOCC1` [Compound 6, [1-[5-(2-Chlorophenyl)-pyrimidin-2-yl]-spiro[1,2-dihydro-indole-3,1′-cyclopropane]-6-yl]-morpholin-4-yl-methanone]: the IC50 fell in the range of 0.1 to 1 µM.
For the compound `O=C(c1ccc2c(c1)N(c1ncc(-c3ccccc3)cn1)CC21CC1)N1CCOCC1` [Compound 7, Morpholin-4-yl-[1-(5-phenyl-pyrimidin-2-yl)-spiro[1,2-dihydro-indole-3,1′-cyclopropane]-6-yl]-methanone], the 50% inhibitory concentration (IC50) is below 0.1 µM.
For the compound `O=C(c1ccc2c(c1)N(c1ncc(-c3ccc(F)cc3F)cn1)CC21CC1)N1CCOCC1` [Compound 8, [1-[5-(2,4-Difluoro-phenyl)-pyrimidin-2-yl]-spiro[1,2-dihydro-indole-3,1′-cyclopropane]-6-yl]-morpholin-4-yl-methanone], the 50% inhibitory concentration (IC50) was below 0.1 µM.
Consider `CC1(C)CN(c2ncc(-c3ccccc3F)cn2)c2cc(C(=O)N3CCOCC3)ccc21` [Compound 9, [1-[5-(2-Fluorophenyl)-pyrimidin-2-yl]-3,3-dimethyl-1,2-dihydro-indol-6-yl]-morpholin-4-yl-methanone], for which the IC50 was 0.1 to 1 µM.
For `Cc1ccccc1-c1cnc(N2CC3(CC3)c3ccc(C(=O)N4CCOCC4)cc32)nc1` [Compound 12, Morpholin-4-yl-[1-(5-o-tolyl-pyrimidin-2-yl)-spiro[1,2-dihydro-indole-3,1′-cyclopropane]-6-yl]-methanone], the IC50 is below 0.1 µM.
Regarding `O=C(c1ccc2c(c1)N(c1ncc(-c3cccc(F)c3F)cn1)CC21CC1)N1CCOCC1` [Compound 15, [1-[5-(2,3-Difluoro-phenyl)-pyrimidin-2-yl]-spiro[1,2-dihydro-indole-3,1′-cyclopropane]-6-yl]-morpholin-4-yl-methanone], the 50% inhibitory concentration (IC50) was below 0.1 µM.
For `COc1ccc(F)c(-c2cnc(N3CC4(CC4)c4ccc(C(=O)N5CCOCC5)cc43)nc2)c1` [Compound 16, [1-[5-(2-Fluoro-5-methoxy-phenyl)-pyrimidin-2-yl]-spiro[1,2-dihydro-indole-3,1′-cyclopropane]-6-yl]-morpholin-4-yl-methanone] the value was below 0.1 µM.
In the case of `COc1ccc(-c2cnc(N3CC4(CC4)c4ccc(C(=O)N5CCOCC5)cc43)nc2)c(F)c1` [Compound 17, [1-[5-(2-Fluoro-4-methoxy-phenyl)-pyrimidin-2-yl]-spiro[1,2-dihydro-indole-3,1′-cyclopropane]-6-yl]-morpholin-4-yl-methanone], the IC50 was below 0.1 µM.
As to `N#Cc1ccccc1-c1cnc(N2CC3(CC3)c3ccc(C(=O)N4CCOCC4)cc32)nc1` [Compound 18, 2-[2-[6-(Morpholine-4-carbonyl)-spiro[1,2-dihydro-indole-3,1′-cyclopropane]-1-yl]-pyrimidin-5-yl]-benzonitrile], the IC50 lay in the range of 0.1 to 1 µM.
With `COc1cccc(F)c1-c1cnc(N2CC3(CC3)c3ccc(C(=O)N4CCOCC4)cc32)nc1` [Compound 19, [1-[5-(2-Fluoro-6-methoxy-phenyl)-pyrimidin-2-yl]-spiro[1,2-dihydro-indole-3,1′-cyclopropane]-6-yl]-morpholin-4-yl-methanone], the IC50 fell in the range of 0.1 to 1 µM.
Turning to `N#Cc1cccc(F)c1-c1cnc(N2CC3(CC3)c3ccc(C(=O)N4CCOCC4)cc32)nc1` [Compound 20, 3-Fluoro-2-[2-[6-(morpholine-4-carbonyl)-spiro[1,2-dihydro-indole-3,1′-cyclopropane]-1-yl]-pyrimidin-5-yl]-benzonitrile], the IC50 was in the range of 0.1 to 1 µM.
On to `CN(C)C(=O)c1ccccc1-c1cnc(N2CC3(CC3)c3ccc(C(=O)N4CCOCC4)cc32)nc1` [Compound 21, N,N-Dimethyl-2-[2-[6-(morpholine-4-carbonyl)-spiro[1,2-dihydro-indole-3,1′-cyclopropane]-1-yl]-pyrimidin-5-yl]-benzamide], for which the IC50 lay in the range of 0.1 to 1 µM.
Regarding `N#Cc1ccc(F)c(-c2cnc(N3CC4(CC4)c4ccc(C(=O)N5CCOCC5)cc43)nc2)c1` [Compound 22, 4-Fluoro-3-[2-[6-(morpholine-4-carbonyl)-spiro[1,2-dihydro-indole-3,1′-cyclopropane]-1-yl]-pyrimidin-5-yl]-benzonitrile], the half-inhibitory concentration (IC50) is below 0.1 µM.
The value for `O=C(c1ccc2c(c1)N(c1ncc(-c3cc(C(F)(F)F)ccc3F)cn1)CC21CC1)N1CCOCC1` [Compound 23, [1-[5-[2-Fluoro-5-(trifluoromethyl)-phenyl]-pyrimidin-2-yl]-spiro[1,2-dihydro-indole-3,1′-cyclopropane]-6-yl]-morpholin-4-yl-methanone] was below 0.1 µM; that for `O=C(c1ccc2c(c1)N(c1ncc(-c3c(F)cccc3C(F)(F)F)cn1)CC21CC1)N1CCOCC1` [Compound 24, [1-[5-[2-Fluoro-6-(trifluoromethyl)-phenyl]-pyrimidin-2-yl]-spiro[1,2-dihydro-indole-3,1′-cyclopropane]-6-yl]-morpholin-4-yl-methanone] was 1 to 10 µM; that for `NC(=O)c1ccccc1-c1cnc(N2CC3(CC3)c3ccc(C(=O)N4CCOCC4)cc32)nc1` [Compound 25, 2-[2-[6-(Morpholine-4-carbonyl)-spiro[1,2-dihydro-indole-3,1′-cyclopropane]-1-yl]-pyrimidin-5-yl]-benzamide] was 0.1 to 1 µM.
With `NC(=O)c1ccc(-c2cnc(N3CC4(CC4)c4ccc(C(=O)N5CCOCC5)cc43)nc2)c(F)c1` [Compound 26, 3-Fluoro-4-[2-[6-(morpholine-4-carbonyl]-spiro[1,2-dihydro-indole-3,1′-cyclopropane]-1-yl]-pyrimidin-5-yl]-benzamide], the half-maximal inhibitory concentration (IC50) was below 0.1 µM.
For `O=C(c1ccc2c(c1)N(c1ncc(-c3c(F)cccc3F)cn1)CC21CC1)N1CCOCC1` [Compound 27, [1-[5-(2,6-Difluoro-phenyl)-pyrimidin-2-yl]-spiro[1,2-dihydro-indole-3,1′-cyclopropane]-6-yl]-morpholin-4-yl-methanone] the value was below 0.1 µM.
As to `CS(=O)(=O)c1ccccc1-c1cnc(N2CC3(CC3)c3ccc(C(=O)N4CCOCC4)cc32)nc1` [Compound 28, [1-[5-(2-Methylsulfonyl-phenyl)-pyrimidin-2-yl]-spiro[1,2-dihydro-indole-3,1′-cyclopropane]-6-yl]-morpholin-4-yl-methanone], the half-inhibitory concentration (IC50) lay in the range of 0.1 to 1 µM.

Usually IC50 stands for the concentration at which inhibition is half-maximal.
